Assays:
[1] = tested on: A. fumigatus (RCMB 002008); test: Minimum Inhibitory Concentration (MIC); type: cell-based
Experimental: (§1) Method S2: Antimi crobial studies a) Tested pathogenic microbes
(§2) The antibacterial a ctivity of the studied ligands and their Cu(II) complexes were evaluated against two Gram positive bacteria ((S. aureus (ATCC 25923) and B. […]
(§3) 0.5). In case of fungi A. fumigatus (RCMB 002008) and C. albicans (RCMB 005003(1) ATCC 10231), the used medium in antagonistic activity against tested fungi is Potato Dextrose Agar, where Fluconazole was used standard antifungal agent. […]
(§4) c) Minimum Inhibitory Concentration (MIC)
(§5) Different dilutions of the compounds are inoculat ed with tested pathogenic microbes.
(§6) After incubation period of 96 well microplate, the results are meas ured using microplate reader. To determine at what level the MIC endpoint is established; subculture of test samples at different concentrati ons occurred in nutrient agar plates.

[2] = tested on: C. albicans (RCMB 005003(1) ATCC 10231); test: Minimum Inhibitory Concentration (MIC); type: cell-based
Experimental: as §1, §2, §3, §4, §5, §6

## CC(=NNc1nc(N2CCOCC2)nc(N2CCOCC2)n1)c1ccccc1[O-].CC(=O)[O-].[Cu+2] [Complex 2, [Cu(DMOT)(CH3COO)]]
[1]
  MIC: 625 µg/mL
[2]
  MIC: 5000 µg/mL

— PMC9106035, “Synthesis, X-ray Structure and Biological Studies of New Self-Assembled Cu(II) Complexes Derived from s-Triazine Schiff Base Ligand” (Molecules, 2022)
